Columns and labels:
human TTK = biological target: T1, human TTK (Homo sapiens, UniProt P33981); assay: TTK inhibition assay (indirect ELISA); type: biochemical; conditions: read-out: TTK IC50 Range
T1 construct: amino terminal GST fusion of full length human TTK; purchased Invitrogen
T1 sequence (P33981 1-857): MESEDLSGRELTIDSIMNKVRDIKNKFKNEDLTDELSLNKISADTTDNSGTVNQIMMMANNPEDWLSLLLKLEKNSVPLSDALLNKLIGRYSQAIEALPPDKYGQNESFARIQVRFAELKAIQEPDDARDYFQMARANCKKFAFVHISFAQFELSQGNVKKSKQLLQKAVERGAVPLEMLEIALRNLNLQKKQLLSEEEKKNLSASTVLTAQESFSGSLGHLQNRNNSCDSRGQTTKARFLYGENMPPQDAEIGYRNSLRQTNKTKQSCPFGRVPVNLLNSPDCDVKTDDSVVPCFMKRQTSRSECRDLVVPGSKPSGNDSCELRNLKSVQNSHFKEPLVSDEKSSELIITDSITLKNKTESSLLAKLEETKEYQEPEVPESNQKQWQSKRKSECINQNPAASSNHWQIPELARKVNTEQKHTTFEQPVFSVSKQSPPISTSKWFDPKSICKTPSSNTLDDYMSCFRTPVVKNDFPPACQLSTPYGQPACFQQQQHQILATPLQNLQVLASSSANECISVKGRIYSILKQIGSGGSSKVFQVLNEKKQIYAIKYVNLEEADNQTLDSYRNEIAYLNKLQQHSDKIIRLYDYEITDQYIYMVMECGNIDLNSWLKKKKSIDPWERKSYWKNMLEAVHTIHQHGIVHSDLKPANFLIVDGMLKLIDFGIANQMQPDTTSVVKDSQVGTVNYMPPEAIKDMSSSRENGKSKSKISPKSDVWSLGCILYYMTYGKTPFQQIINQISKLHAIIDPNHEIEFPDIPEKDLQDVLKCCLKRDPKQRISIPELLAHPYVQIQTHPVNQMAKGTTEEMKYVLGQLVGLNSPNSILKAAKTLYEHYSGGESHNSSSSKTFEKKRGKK

Breast cancer cells = assay: Cancer cell line growth inhibition (SRB assay); type: cell-based; conditions: Homo sapiens; MDA-MB-468; read-out: Cancer Cell Line GI50 Range MDA-MB-468
[1] = test system: colon cancer cells (HCT116); assay: Cancer cell line growth inhibition (SRB assay); type: cell-based; conditions: Homo sapiens, HCT-116; read-out: Cancer Cell Line GI50 Range HCT116
[2] = test system: ovarian cancer cells (PA-1); assay: Cancer cell line growth inhibition (SRB assay); type: cell-based; conditions: Homo sapiens, PA-1; read-out: Cancer Cell Line GI50 Range PA-1

IC50 (human TTK) [nM]	GI50 (Breast cancer cells) [nM]	GI50 [1] [nM]	GI50 [2] [nM]	Compound
< 100	> 500	> 500	> 500	O=C(NCC1(OC2CCCC2)CCCCC1)c1ccc2[nH]nc(-c3ccc(OC4CCN(C5COC5)CC4)cc3)c2c1 [Example A434, N-((1-(cyclopentyloxy)cyclohexyl)methyl)-3-(4-((1-(oxetan-3-yl)piperidin-4-yl)oxy)phenyl)-1H-indazole-5-carboxamide]
< 100	100 to 500	100 to 500	100 to 500	CCC(CC)(CNC(=O)c1ccc2[nH]nc(-c3ccc(OC4CCN(C5COC5)CC4)cc3)c2c1)c1ccccc1 [Example A439, N-(2-ethyl-2-phenylbutyl)-3-(4-((1-(oxetan-3-yl)piperidin-4-yl)oxy)phenyl)-1H-indazole-5-carboxamide]
< 100	100 to 500	100 to 500	100 to 500	CCC(CC)(CNC(=O)c1ccc2[nH]nc(-c3ccc(OC4CCN(C)CC4)cc3)c2c1)c1ccccc1 [Example A440, N-(2-ethyl-2-phenylbutyl)-3-(4-((1-methylpiperidin-4-yl)oxy)phenyl)-1H-indazole-5-carboxamide]
< 100	100 to 500	100 to 500	100 to 500	CCC(CC)(CNC(=O)c1ccc2[nH]nc(-c3ccc(N4CCN(C)CC4)cc3)c2c1)c1ccccc1 [Example A441, N-(2-ethyl-2-phenylbutyl)-3-(4-(4-methylpiperazin-1-yl)phenyl)-1H-indazole-5-carboxamide]
< 100	> 500	> 500	> 500	CN1CCC(Oc2ccc(-c3n[nH]c4ccc(C(=O)NCC5(OC6CCCC6)CCCCC5)cc34)cc2)CC1 [Example A442, N-((1-(cyclopentyloxy)cyclohexyl)methyl)-3-(4-((1-methylpiperidin-4-yl)oxy)phenyl)-1H-indazole-5-carboxamide]
< 100	> 500	100 to 500	100 to 500	CCC(CC)(CNC(=O)c1ccc2[nH]nc(-c3ccc(OC4CCN(C[C@@H](C)O)CC4)cc3)c2c1)c1ccccc1 [Example A443, (R)-N-(2-ethyl-2-phenylbutyl)-3-(4-((1-(2-hydroxypropyl)piperidin-4-yl)oxy)phenyl)-1H-indazole-5-carboxamide]
< 100	> 500	> 500	> 500	C[C@@H](O)CN1CCC(Oc2ccc(-c3n[nH]c4ccc(C(=O)NCC5(OC6CCCC6)CCCCC5)cc34)cc2)CC1 [Example A444, (R)-N-((1-(cyclopentyloxy)cyclohexyl)methyl)-3-(4-((1-(2-hydroxypropyl)piperidin-4-yl)oxy)phenyl)-1H-indazole-5-carboxamide]
< 100	> 500	> 500	> 500	O=C(NCC1(N2CCOCC2)CCC(F)(F)CC1)c1ccc2[nH]nc(-c3ccc(N4CCOCC4)cc3)c2c1 [Example A460, N-((4,4-difluoro-1-morpholinocyclohexyl)methyl)-3-(4-morpholinophenyl)-1H-indazole-5-carboxamide]
< 100	> 500	> 500	> 500	O=C(NCC1(c2cccnc2)CC1)c1ccc2[nH]nc(-c3ccc(N4CCOCC4)cc3)c2c1 [Example A461, 3-(4-morpholinophenyl)-N-((1-(pyridin-3-yl)cyclopropyl)methyl)-1H-indazole-5-carboxamide]
< 100	100 to 500	100 to 500	< 100	CCC(CC)(CNC(=O)c1ccc2[nH]nc(-c3ccc(N4CCOCC4)cc3)c2c1)N1CCOCC1 [Example A463, N-(2-ethyl-2-morpholinobutyl)-3-(4-morpholinophenyl)-1H-indazole-5-carboxamide]
100 to 500	> 500	> 500	100 to 500	O=C(NCC1(c2ccncc2)CC1)c1ccc2[nH]nc(-c3ccc(N4CCOCC4)cc3)c2c1 [Example A464, 3-(4-morpholinophenyl)-N-((1-(pyridin-4-yl)cyclopropyl)methyl)-1H-indazole-5-carboxamide]
< 100	100 to 500	100 to 500	< 100	CCC(CC)(CNC(=O)c1ccc2[nH]nc(-c3ccc(N4CCN(C)CC4)cc3)c2c1)N1CCOCC1 [Example A465, N-(2-ethyl-2-morpholinobutyl)-3-(4-(4-methylpiperazin-1-yl)phenyl)-1H-indazole-5-carboxamide]
100 to 500	> 500	> 500	> 500	CN1CCN(C2(CNC(=O)c3ccc4[nH]nc(-c5ccc(N6CCOCC6)cc5)c4c3)CCCC2)CC1 [Example A467, N-((1-(4-methylpiperazin-1-yl)cyclopentyl)methyl)-3-(4-morpholinophenyl)-1H-indazole-5-carboxamide]
< 100	> 500	100 to 500	100 to 500	CN1CCC(CO)(Cc2ccc(-c3n[nH]c4ccc(C(=O)NCC5(N6CCOCC6)CCCCC5)cc34)cc2)CC1 [Example A486, 3-(4-((4-(hydroxylmethyl)-1-methylpiperidin-4-yl)methyl)phenyl)-N-((1-morpholinocyclohexyl)methyl)-1H-indazole-5-carboxamide]
100 to 500	> 500	> 500	> 500	CC1(C)CC(=O)c2cc(-c3n[nH]c4ccc(C(=O)NCC5(N6CCOCC6)CCCCC5)cc34)ccc2O1 [Example A490, 3-(2,2-dimethyl-4-oxochroman-6-yl)-N-((1-morpholinocyclohexyl)methyl)-1H-indazole-5-carboxamide]
< 100	> 500	> 500	> 500	Cc1cc(=O)n(C)c2ccc(-c3n[nH]c4ccc(C(=O)NCC5(N6CCOCC6)CCCCC5)cc34)cc12 [Example A491, 3-(1,4-dimethyl-2-oxo-1,2-dihydroquinolin-6-yl)-N-((1-morpholinocyclohexyl)methyl)-1H-indazole-5-carboxamide]

Compound	IC50 (human TTK) [nM]	GI50 (Breast cancer cells) [nM]	GI50 [1] [nM]	GI50 [2] [nM]
CC(C)C[C@H](NC(=O)c1ccc2[nH]nc(-c3ccc(N4[C@@H]5CCC[C@H]4COC5)cc3)c2c1)c1ccccc1Cl [Example A417, 3-(4-((1R,5S)-3-oxa-9-azabicyclo[3.3.1]nonan-9-yl)phenyl)-N-((S)-(2-chlorophenyl)-3-methylbutyl)-1 H-indazole-5-carboxamide]	< 100	100 to 500	100 to 500	100 to 500
O=C(N[C@@H](c1ccccn1)C1CCCC1)c1ccc2[nH]nc(-c3ccc(N4C5COCC4CC(O)C5)cc3)c2c1 (stereo partly drawn) [Example A425, N-((R)-cyclopentyl(pyridin-2-yl)methyl)-3-(4-((1R,5S,7R)-7-hydroxy-3-oxa-9-azabicyclo[3.3.1]nonan-9-yl)phenyl)-1H-indazole-5-carboxamide]	< 100	< 100	< 100	< 100
CN1[C@@H]2CC[C@H]1C[C@@H](Oc1ccc(-c3n[nH]c4ccc(C(=O)NCC5(OC6CCCC6)CCCCC5)cc34)cc1)C2 [Example A438]	< 100	> 500	100 to 500	100 to 500
CN1CCC(CNC(=O)c2ccc3[nH]nc(-c4ccc(N5[C@@H]6CC[C@H]5COC6)cc4)c3c2)(c2ccccc2)CC1 [Example A468, 3-(4-((1R,5S)-3-oxa-8-azabicyclo[3.2.1]octan-8-yl)phenyl)-N-((1-methyl-4-phenylpiperidin-4-yl)methyl)-1H-indazole-5-carboxamide]	< 100	> 500	100 to 500	100 to 500
CN1[C@@H]2CC[C@H]1C[C@@H](Oc1ccc(-c3n[nH]c4ccc(C(=O)NCC5(c6ccccn6)CC5)cc34)cc1)C2 [Example A488]	< 100	> 500	> 500	> 500
O=C(NCC1(N2CCOCC2)CCOCC1)c1ccc2[nH]nc(-c3ccc(N4[C@@H]5CC[C@H]4C[C@@H](O)C5)cc3)c2c1 [Example A493, 3-(4-((1R,3R,5S)-3-hydroxy-8-azabicyclo[3.2.1]octan-8-yl)phenyl)-N-((4-morpholinotetrahydro-2H-pyran-4-yl)methyl)-1H-indazoIe-5-carboxamide]	< 100	> 500	100 to 500	100 to 500
